In patent US20090018166A1, “New Pyridine Analogues X 161” (ASTRAZENECA AB, priority 2007, published 2009) one finds IC50 data, which are given here for eight compounds.

Each structure is given as a SMILES string.

For the experiment, the target named is T1, P2Y12 receptor (Homo sapiens, UniProt Q9H244).
T1 construct: expressed in transfected cells; host or cells: CHO cells (membranes)
T1 sequence (Q9H244 whole entry): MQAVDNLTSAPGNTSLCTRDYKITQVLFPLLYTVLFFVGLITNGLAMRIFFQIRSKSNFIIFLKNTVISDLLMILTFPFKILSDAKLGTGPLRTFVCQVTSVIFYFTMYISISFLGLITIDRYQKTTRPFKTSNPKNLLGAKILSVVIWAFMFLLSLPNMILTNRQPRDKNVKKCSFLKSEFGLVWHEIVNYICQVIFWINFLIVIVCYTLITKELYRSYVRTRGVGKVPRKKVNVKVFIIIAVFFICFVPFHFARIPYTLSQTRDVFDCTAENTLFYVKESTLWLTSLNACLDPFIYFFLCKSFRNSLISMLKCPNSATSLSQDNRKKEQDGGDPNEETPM
Nature of the experiment: Functional inhibition of 2-Me-S-ADP induced P2Y12 signalling (35S-GTPγS binding, membranes from P2Y12 transfected CHO-cells). Type of experiment: biochemical. The settings on record: 35S-GTPγS, EC80 of 2-methyl-thio-adenosine diphosphate, P2Y12 CHO membranes; value given in each example; read-out: GTPγS(IC50 μM). The method in brief: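 Membranes (5 μg) from P2Y12-transfected CHO cells in pH 7.4 HEPES buffer with 10 μM GDP and saponin were stimulated with an EC80 of 2-methyl-thio-ADP plus compound and ^35S-GTPγS for 45 min at 30° C. Filter-retained ^35S-GTPγS was counted, normalised between agonist and no-agonist activity, and IC50 taken from a four-parameter fit.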
Background: GTPγS is a poorly hydrolysed GTP analogue; its binding reports G protein activation.
The IC50 is the concentration needed to halve the response being measured. As to `CCc1cnc(-c2cc(C#N)c(N3CCC(C(=O)NS(=O)(=O)N(C)c4ccc(F)cc4)CC3)nc2CN2CCCC2=O)o1` [Example 62, 1-{3-cyano-5-(5-ethyl-1,3-oxazol-2-yl)-6-[(2-oxopyrrolidin-1-yl)methyl]pyridin-2-yl}-N-{[(4-fluorophenyl)(methyl)amino]sulfonyl}piperidine-4-carboxamide], the IC50 stood at 0.03 µM. The value for `CCc1cnc(-c2cc(C#N)c(N3CCC(C(=O)NS(=O)(=O)Cc4ccccc4)CC3)nc2CN2CCCC2=O)o1` [Example 63, N-(benzylsulfonyl)-1-{3-cyano-5-(5-ethyl-1,3-oxazol-2-yl)-6-[(2-oxopyrrolidin-1-yl)methyl]pyridin-2-yl}piperidine-4-carboxamide] was 0.021 µM; that for `CCc1cnc(-c2cc(Cl)c(N3CCC(C(=O)NS(=O)(=O)N(C)c4ccc(F)cc4)CC3)nc2CN2CCCC2=O)o1` [Example 64, 1-{3-chloro-5-(5-ethyl-1,3-oxazol-2-yl)-6-[(2-oxopyrrolidin-1-yl)methyl]pyridin-2-yl}-N-{[(4-fluorophenyl)(methyl)amino]sulfonyl}piperidine-4-carboxamide] was 0.45 µM. The value for `CCc1cnc(-c2cc(Cl)c(N3CCC(C(=O)NS(=O)(=O)Cc4ccccc4)CC3)nc2CN2CCCC2=O)o1` [Example 65, N-(benzylsulfonyl)-1-{3-chloro-5-(5-ethyl-1,3-oxazol-2-yl)-6-[(2-oxopyrrolidin-1-yl)methyl]pyridin-2-yl}piperidine-4-carboxamide] was 0.17 µM; that for `CCCC(=O)c1cc(Cl)c(N2CCC(C(=O)NS(=O)(=O)Cc3ccccc3)CC2)nc1CN1CCCCC1=O` [Example 66, N-(benzylsulfonyl)-1-{5-butyryl-3-chloro-6-[(2-oxopiperidin-1-yl)methyl]pyridin-2-yl}piperidine-4-carboxamide] was 0.252 µM.

`CCCC(=O)c1cc(Cl)c(N2CCC(C(=O)NS(=O)(=O)N(C)c3ccc(F)cc3)CC2)nc1CN1CCCCC1=O` [Example 67, 1-{5-Butyryl-3-chloro-6-[(2-oxopiperidin-1-yl)methyl]pyridin-2-yl}-N-{[(4-fluorophenyl)(methyl)amino]sulfonyl}piperidine-4-carboxamide]: the 50% inhibitory concentration (IC50) came to 0.445 µM. The value for `CCCC(=O)c1cc(Cl)c(N2CCC(C(=O)N(C)S(=O)(=O)N(C)c3ccc(F)cc3)CC2)nc1CN1CCCC1=O` [Example 69, 1-{5-Butyryl-3-chloro-6-[(2-oxopyrrolidin-1-yl)methyl]pyridin-2-yl}-N-{[(4-fluorophenyl)(methyl)amino]sulfonyl}-N-methylpiperidine-4-carboxamide] was 3.67 µM; that for `CCCC(=O)c1cc(C#N)c(N2CCC(C(=O)N(C)S(=O)(=O)CC3CCCC3)CC2)nc1CN1CCCC1=O` [Example 70, 1-{5-Butyryl-3-cyano-6-[(2-oxopyrrolidin-1-yl)methyl]pyridin-2-yl}-N-[(cyclopentylmethyl)sulfonyl]-N-methylpiperidine-4-carboxamide] was 0.903 µM.
